Laboratory results taken from patent publication US6140362A, “Method for inhibiting the growth of mammalian cells” (Rohm and Haas Company, priority 1997, dated 2000).

How the values were obtained:
CNS cancer (SF539) = assay: Growth inhibition of human tumor cell lines: CNS cancer (SF539); assay type: cell-based; settings: SF-539, cell line E = CNS cancer (SF539), NCI testing
Method: (§1) Selected compounds were evaluated by the National Cancer Institute, Bethesda, Md. against 60 human tumor cell lines according to procedures described in Principles and Practices of Oncology, volume 3, issue number 10, pp. 1-12. Results of the testing against representative cell lines including the test compound number, and the GI50 values (μM) are set forth in Table 3. The GI50 value is the concentration required to inhibit cell growth by 50% as compared to untreated control cultures.

[1] = system: mouse lymphoma cell line L5178Y; assay: Growth inhibition of mouse lymphoma cells (L5178Y), 48 h; assay type: cell-based; settings: 48 hours; for inhibition at 2 µM: 2 micromolar; for inhibition at 10 µM: 10 micromolar, read-out: Inhibition of growth
Method: Effects of compounds on growth of mouse lymphoma cell line L5178Y, were determined as follows. Cells were grown in Fischer's medium (obtained from Life Technologies, Inc., Gaithersburg, Md.) containing 0.24 grams per liter (g/l) sodium pyruvate, 1.12 g/l surfactant (Pluronic F-68, from BASF Corporation, Parsippany, N.J.), and 10% by volume (10% v/v) heat-inactivated horse serum (obtained from Life Technologies, Inc) at 37° C. To 30 ml aliquots of cell suspension (2×10^4 cells per milliliter (mL)) in exponential growth phase were added test compounds dissolved in dimethylsulfoxide (DMSO) at various concentrations such that the final DMSO concentration in the mixtures was 0.25%. Tubes were gassed with 5% CO2 then incubated on a roller drum apparatus. After 48 hours the cells were treated with 0.1% trypsin (Life Technologies, Inc.,) for 10 minutes and counted in a Coulter Counter equipped with a 140 micrometer (μM) aperture. Percent inhibition of growth was calculated by comparing the number of cells in assays containing test compound with the number of cells in controls lacking the test compound.

Melanoma (SKMEL-2) = assay: Growth inhibition of human tumor cell lines: Melanoma (SKMEL-2); assay type: cell-based; settings: SK-MEL-2, cell line F = Melanoma (SKMEL-2), NCI testing
Method: as §1

tubulin [2] = assay: Effect of preincubation time with tubulin on inhibition of microtubule assembly; assay type: biochemical, calf; settings: 16 μM
Method: (§2) Compounds were evaluated for their ability to inhibit tubulin assembly into microtubules by comparing the extent of cold-reversible assembly in the presence of each test compound with controls lacking the test compound. Tubulin was isolated from calf brain tissue by two cycles of assembly/disassembly as described by Vallee, R. B. in Methods in Enzymology, vol. 134, pp. 89-104. Assay mixtures contained 1 mg/ml of purified tubulin in 1 M sodium glutamate, pH 6.6, 1 millimolar (mM) MgCl2, and the test compound, which was added as a solution in DMSO. The final concentration of DMSO in each assay was 2% (v/v). Assay mixtures were preincubated at 37° C. for 1 h, then chilled on ice for 5 min. Microtubule assembly was initiated by addition of guanosine triphosphate (0.1 mM), and incubation at 37° C. Assembly was followed turbidimetrically at 350 nm for 20 minutes (min) using a temperature-controlled cell in a Cary 2200 spectrophotometer. Since microtubules undergo depolymerization at 0° C., assembly was confirmed by measuring the reduction in turbidity following incubation for 30 min at 0° C. The difference in absorbance before and after incubation for 30 min at 0° C. (ΔA350) represents the extent of microtubule assembly. Inhibition of assembly was calculated by subtracting the (ΔA350) values for treatments with test compounds from the (ΔA350) for controls without test compound, and expressing this difference as a percentage of the (ΔA350) value for the control. Results including test compound number, test compound concentration in micromoles per liter (μM) and percent inhibition are set forth in Table 11.
Compound 14 (16 μM) was preincubated with tubulin under the conditions described in Example 4 for 0, 1, 2, 4 and 6 hours before initiating assembly by addition of guanosine triphosphate (0.1 mM), and incubation at 37° C. Inhibition of assembly was determined as in Example 4, and results including preincubation time and percent inhibition of assembly are set forth in Table 12.

Ovarian cancer (OVCAR8) = assay: Growth inhibition of human tumor cell lines: Ovarian cancer (OVCAR8); assay type: cell-based; settings: OVCAR-8, cell line G = Ovarian cancer (OVCAR8), NCI testing
Method: as §1

tubulin [3] = assay: Inhibition of microtubule assembly; assay type: biochemical, calf; settings: 50 μM, preincubated 1 h at 37° C.
Method: as §2

[4] = system: Small cell lung cancer (DMS 114); assay: Growth inhibition of human tumor cell lines: Small cell lung cancer (DMS 114); assay type: cell-based; settings: cell line C = Small cell lung cancer (DMS 114), NCI testing
Method: as §1

Leukemia (SR) = assay: Growth inhibition of human tumor cell lines: Leukemia (SR); assay type: cell-based; settings: cell line A = Leukemia (SR), NCI testing
Method: as §1

Renal cancer (CAKI1) = assay: Growth inhibition of human tumor cell lines: Renal cancer (CAKI1); assay type: cell-based; settings: CAKI-1, cell line H = Renal cancer (CAKI1), NCI testing
Method: as §1

mouse lymphoma cells = assay: Effect on mitosis in mouse lymphoma cells (visible chromosomes); assay type: cell-based; settings: 2 μM, 7 hours
Method: Compound 14 was dissolved in DMSO at 0.8 mM and 75 microliters (μL) of this solution was added to tubes containing 30 ml of cell suspension at 1.2×10^5 /mL grown under the conditions described in Example 1. Cells in control tubes received 75 μL of DMSO alone. Tubes were gassed with 5% CO2, then incubated on a roller drum apparatus for 7 hours. The cells were treated with hypotonic medium (3-fold diluted growth medium) and fixed in acetic acid:methanol (1:3, v/v). After staining with aceto-orcein (method described in L. La Cour, Stain Technology, vol. 16, pp. 169-174 (1941)) the percentage of cells with visible chromosomes in treated and control cells was determined based on examination of 400 cells per sample.

Colon cancer (HCT116) = assay: Growth inhibition of human tumor cell lines: Colon cancer (HCT116); assay type: cell-based; settings: HCT-116, cell line D = Colon cancer (HCT116), NCI testing
Method: as §1

[5] = system: Nonsmall cell lung cancer (NCIH522); assay: Growth inhibition of human tumor cell lines: Nonsmall cell lung cancer (NCIH522); assay type: cell-based; settings: NCI-H522, cell line B = Nonsmall cell lung cancer (NCIH522), NCI testing
Method: as §1

[6] = Biological activity of enantiomers; settings: vs corresponding R enantiomers; test not stated

Compound: CCC(C)(NC(=O)c1cc(Cl)cc(Cl)c1)C(=O)CCl (stereo not shown) [Compound 14]
- GI50 (CNS cancer (SF539)): 2.1 µM
- inhibition at 2 µM [1]: 95%
- GI50 (Melanoma (SKMEL-2)): 1.94 µM
- Percent inhibition of microtubule assembly (tubulin [2]; preincubation time 0 h): 0%
- Percent inhibition of microtubule assembly (tubulin [2]; preincubation time 1 h): 5.1%
- Percent inhibition of microtubule assembly (tubulin [2]; preincubation time 2 h): 22.6%
- Percent inhibition of microtubule assembly (tubulin [2]; preincubation time 4 h): 57.6%
- Percent inhibition of microtubule assembly (tubulin [2]; preincubation time 6 h): 87.2%
- GI50 (Ovarian cancer (OVCAR8)): 2.79 µM
- Percent inhibition of microtubule assembly (tubulin [3]): 56.3%
- GI50 [4]: 0.72 µM
- GI50 (Leukemia (SR)): 0.83 µM
- GI50 (Renal cancer (CAKI1)): 3.83 µM
- Normal mitotic figures in treated cells (mouse lymphoma cells; vs control): lacking in the treated cells
- Number of cells with visible chromosomes (mouse lymphoma cells; vs control): produced an increase in the number of cells with visible chromosomes
- Percentage of cells with visible chromosomes (mouse lymphoma cells; control 3.9): 27.4 Percentage
- GI50 (Colon cancer (HCT116)): 2.31 µM
- GI50 [5]: 1.98 µM

Compound: CC(C)(NC(=O)c1cc(Cl)cc(Cl)c1)C(=O)C(Br)Br [Compound 17]
- GI50 (CNS cancer (SF539)): 2.25 µM
- inhibition at 2 µM [1]: 97%
- GI50 (Melanoma (SKMEL-2)): 2.71 µM
- GI50 (Ovarian cancer (OVCAR8)): 3 µM
- Percent inhibition of microtubule assembly (tubulin [3]): 85.9%
- GI50 [4]: 2.09 µM
- GI50 (Leukemia (SR)): 1.79 µM
- GI50 (Renal cancer (CAKI1)): 2.37 µM
- GI50 (Colon cancer (HCT116)): 3.65 µM
- GI50 [5]: 1.04 µM

Compound: CCC(C)(NC(=O)c1cc(C)cc(C#N)c1)C(=O)CCl (stereo not shown) [Compound 23]
- GI50 (CNS cancer (SF539)): 2.55 µM
- inhibition at 10 µM [1]: 95%
- GI50 (Melanoma (SKMEL-2)): 2.56 µM
- GI50 (Ovarian cancer (OVCAR8)): 3.43 µM
- Percent inhibition of microtubule assembly (tubulin [3]): 50.5%
- GI50 [4]: 2.19 µM
- GI50 (Leukemia (SR)): 0.65 µM
- GI50 (Renal cancer (CAKI1)): 2.81 µM
- GI50 (Colon cancer (HCT116)): 3.28 µM
- GI50 [5]: 2.05 µM

Compound: CCC(C)(NC(=O)c1cc(Cl)cc(Cl)c1)C(=O)CSC#N (stereo not shown) [Compound 26]
- GI50 (CNS cancer (SF539)): 3.45 µM
- inhibition at 10 µM [1]: 67%
- GI50 (Melanoma (SKMEL-2)): 12.2 µM
- GI50 (Ovarian cancer (OVCAR8)): 11.9 µM
- Percent inhibition of microtubule assembly (tubulin [3]): 56.6%
- GI50 [4]: 3.71 µM
- GI50 (Leukemia (SR)): 5.69 µM
- GI50 (Renal cancer (CAKI1)): 13.3 µM
- GI50 (Colon cancer (HCT116)): 4.85 µM
- GI50 [5]: 3.77 µM

Compound: CC(C)(NC(=O)c1cc(Cl)cc(Cl)c1)C(=O)CCl [Compound 28]
- GI50 (CNS cancer (SF539)): 9.79 µM
- inhibition at 10 µM [1]: 87%
- GI50 (Melanoma (SKMEL-2)): 12.2 µM
- GI50 (Ovarian cancer (OVCAR8)): 12.4 µM
- Percent inhibition of microtubule assembly (tubulin [3]): 22.3%
- GI50 [4]: 5.38 µM
- GI50 (Leukemia (SR)): 3.01 µM
- GI50 (Renal cancer (CAKI1)): 12.9 µM
- GI50 (Colon cancer (HCT116)): 14.2 µM
- GI50 [5]: 2.61 µM

Compound: CCC(C)(NC(=O)c1cncc(Br)c1)C(=O)CCl (stereo not shown) [Compound 44]
- GI50 (CNS cancer (SF539)): 2.21 µM
- inhibition at 2 µM [1]: 95%
- GI50 (Melanoma (SKMEL-2)): 0.41 µM
- GI50 (Ovarian cancer (OVCAR8)): 1.96 µM
- Percent inhibition of microtubule assembly (tubulin [3]): 100.0%
- GI50 [4]: 0.33 µM
- GI50 (Leukemia (SR)): 0.33 µM
- GI50 (Renal cancer (CAKI1)): 2.36 µM
- GI50 (Colon cancer (HCT116)): 0.67 µM
- GI50 [5]: 0.35 µM

Compound: CC[C@](C)(NC(=O)c1cc(Cl)cc(Cl)c1)C(=O)CCl [S enantiomer of compound 14]
- Activity of S enantiomer relative to R enantiomer [6]: more active

Compound: CC[C@](C)(NC(=O)c1cc(Cl)c(C)c(Cl)c1)C(=O)CCl [S enantiomer of compound 32]
- Activity of S enantiomer relative to R enantiomer [6]: more active
